From US20220054496A1, “MODULATION OF TRF1 FOR BRAIN CANCER TREATMENT” (Fundación Del Sector Público Estatal Centro Nacional De …, priority 2018, published 2022)
“Also recorded” adds a separate entry of the source.

Tests used:
TRF1 [1] = assay: Western blot of total TRF1 protein in U251 cells; assay type: cell-based, human; conditions: 10 μM, 24 h or 48 hr
Procedure: Nuclear protein extracts were obtained using Nuclear Cytosolic Fractionation Kit (Biovision) and protein concentration was determined using the Bio-Rad DC Protein Assay (Bio-Rad). Up to 15 μg of protein per extract were separated in SDS-polyacrylamide gels by electrophoresis. After protein transfer onto nitrocellulose membrane (Whatman), the membranes were incubated with the indicated antibodies. Antibody binding was detected after incubation with a secondary antibody coupled to horseradish peroxidase using chemiluminescence with ECL detection KIT (GE Healthcare)
Quantifications: Protein-band intensities were measured with ImageJ software and normalized against the loading control.
(§1) For in vitro studies, ETP-47228 ETP-47037 and ETP-50946 were dissolved in DMSO at a final concentration of 10 or 5 mM. Cells were treated at a concentration of 10 μM for 24 h or 48 hr.
(§2) To address whether these small molecules could represent a new therapeutic strategy for the treatment of GBM, the present inventors first tested the ability of the three independent TRF1 inhibitory molecules (ETP-47228, ETP-47037 and ETP-50946) to downregulate TRF1 protein levels in the U251 human GBM cell line.

TRF1 [2] = assay: TRF1 nuclear immunofluorescence (TRF1 foci) in U251 cells; assay type: cell-based, human; conditions: 10 μM, 24 h or 48 hr
Procedure: For immunofluorescence analyses, cells were plated in a proper density in cell culture μCLEAR plates (Greiner) and fixed in 4% formaldehyde in PBS. Cells were permeabilized with 0.25% Triton in PBS and blocked with 5% BSA in PBS. Tissue sections were fixed in 10% buffered formalin (Sigma) and embedded in paraffin. After deparaffinization and citrate antigen retrieval, sections were permeabilized with 0.5% Triton in PBS and blocked with 1% BSA and 10% Australian FBS ([…]) in PBS. The antibodies were applied overnight in antibody diluents with background reducing agents (Invitrogen).
Immunofluorescence images were obtained using a confocal ultraspectral microscope (Leica TCS-SP5) or the Opera High Content Screening (HCS) system (Perkin Elmer). Quantifications were performed with Definiens software.
as §1, §2

[3] = Sickness, morbidity and pathologies of xenograft mice after long-term treatment; assay type: in vivo
Procedure: (§3) h676 and h543 patient-derived GSCs were dissociated using a 200 μl pipet and resuspended in NeuroCult medium and matrigel in a 1:1 ratio in a concentration of 1000 cell/μl. Nude mice (athymic Nude-Foxn1^nu/nu from Harlan) were injected subcutaneously with 100 μl of the cell preparation. ETP-47037 (or vehicle) was orally administrated at a concentration of 75 mg/kg 5 days per week (see also section 8), starting one week after cell injection. The vehicle consisted in 10% N-methyl-2-pyrrolidone (NMP, Sigma Aldrich) and 90% poly ethylene glycol (PEG, Sigma Aldrich). Mice were weighted and tumors were measured every 2-4 days. Tumor area was determined by the following equation: A=π*(a/2)*(b/2), were a and b are tumor length and width respectively.
Histopathological analysis was performed in paraffin embedded tissue sections stained with hematoxylin and eosin (H&E), with the assistance of the CNIO Histopathology Unit and Juana María Flores from the Universidad Complutense de Madrid (UCM).
(§4) Next, the present inventors set to address whether TRF1 chemical inhibition was able to block tumor growth in vivo. […] Thus, the two independent primary GSCs (h676 and h543) were injected subcutaneously into nude mice. […]

[4] = Crossing of the brain blood barrier
h676 GSCs = assay: Sphere formation assay in patient-derived h676 GSCs; assay type: cell-based, human; conditions: vs untreated controls
Procedure: (§5) FIG. 48. […] (A) Dose-response curves of the h676 GSCs treated 7 days with the indicated compounds. (B) Dose-response curves of the h543 GSCs treated 7 days with the indicated compounds. Data are represented as mean±SD.
(§6) Spheres were dissociated into single cells and seeded at a density of 50, 100, 200 and 400 cells/well in a 96 well plate. Neurosphere number was assessed after 7 days. Pictures were taken using Nikon Eclipse Ti-U microscope and neurosphere diameter was measured using NIS Elements BR software.
(§7) Given the promising results the present inventors obtained with the TRF1 chemical modulators in the U251 GBM cell line, the present inventors next set to address the effects of these compounds in two independent patient-derived primary GSCs (h543 and h676) cultures.
(§8) Next, the present inventors set to address whether the different compounds were able to block sphere formation in the h676 and h543 GSCs.

h676 GSCs xenografts = assay: Subcutaneous xenograft of patient-derived h676 GSCs in nude mice; assay type: in vivo
Procedure: as §3
(§9) For oral administration, ETP-47037 was dissolved in 10% N-methyl-2-pyrrolidone (NMP, Sigma Aldrich) and 90% polyethylene glycol (PEG, Sigma Aldrich) at a concentration of 75 mg/kg.
Next, the present inventors set to address whether TRF1 chemical inhibition was able to block tumor growth in vivo. […] Thus, the two independent primary GSCs (h676 and h543) were injected subcutaneously into nude mice. One week after GSC injection, mice received oral administration of the vehicle (NMP 10%, PEG 90%) as placebo or the ETP-47037 TRF1 inhibitor 5 days/week, every week until human endpoint, and tumors were continuously followed-up by caliper measurements (FIG. 42A).

U251 cells = assay: Neurosphere formation assay in U251 cells; assay type: cell-based, human; conditions: U251 in NSC media; seven days; vs DMSO
Procedure: as §6
Finally, the present inventors checked if the three chemical compounds had the ability to reduce sternness in these cells. They cultured U251 cells with NSC media in order to obtain a suspension culture enriched in stem cells. The inventors performed a sphere formation assay with these cells treated with ETP-47228, ETP-47037 and ETP-50946 or DMSO for seven days. […] Of note, all these effects recapitulated what the present inventors observed with Trf1 genetic downregulation (See 2.2).

h543 GSCs xenografts = assay: Subcutaneous xenograft of patient-derived h543 GSCs in nude mice; assay type: in vivo; conditions: oral 75 mg/kg 5 days/week, vs vehicle
Procedure: as §3, §9, §4

h543 GSCs = assay: Sphere formation assay in patient-derived h543 GSCs; assay type: cell-based, human; conditions: vs untreated controls
Procedure: as §5, §6, §7, §8

[5] = system: K-Ras^G12V-induced lung tumors; conditions: p53-deficient background; cited from earlier work
[6] = GSC-derived xenografts, vs vehicle

With `CS(=O)(=O)N1CCN(Cc2cc3c(N4CCOCC4)nc(-c4cnc(N)nc4)cn3n2)CC1` [ETP-47037] the “total TRF1 protein levels (western blot)” value (TRF1 [1]) was “effectively reduced”, the “TRF1 foci (immunofluorescence)” value (TRF1 [2]) was “effectively reduced” and the “Mice pathologies after long-term treatment” value ([3]; one line per mouse (Mice 1-4)) was “Mice 3: dermatitis; also recorded: Mice 4: dermatitis; also recorded: Mice 2: dermatitis”. The “signs of sickness or morbidity” value ([3]; treated cohorts compared to the placebo group) was “did not detect any signs of sickness or morbidity”, the “crossing the brain blood barrier” value [4] was “not crossing the brain blood barrier” and the diameter of spheres (h676 GSCs) was “significant drastic reduction”. For the same molecule, the number of spheres (h676 GSCs) was “significant drastic reduction”, the “proliferation marker Ki67-positive cells in tumors” value (h676 GSCs xenografts; [6]) was “reduces proliferation” and the “γH2AX DNA damage marker positive cells in tumors” value (h676 GSCs xenografts; [6]) was “induces DNA damage”. For the same molecule, the “tumor areas (caliper follow-up)” value (h676 GSCs xenografts; h676 xenograft, oral 75 mg/kg 5 days/week, vs vehicle) was “drastic reduction”, the “decrease of TRF1 protein levels in tumors (immunofluorescence)” value (h676 GSCs xenografts; h676 xenograft, vs placebo) was 80% and the tumor size post-mortem (h676 GSCs xenografts; h676 xenograft, vs placebo) was “striking decrease”. For the same molecule, the tumor weight post-mortem (h676 GSCs xenografts; h676 xenograft, vs placebo) was “striking decrease”, the “histological analysis of the tumors” value (h676 GSCs xenografts; xenografts after treatment) was “decreased cellularity in the tumors, together with necrotic areas, apoptotic bodies, compacted chromatin and fragmented DNA” and the diameter of neurospheres (U251 cells) was “strong reduction”. For the same molecule, the number of neurospheres (U251 cells) was “strong reduction”, the “tumor areas (caliper follow-up)” value (h543 GSCs xenografts) was “drastic reduction” and the diameter of spheres (h543 GSCs) was “significant drastic reduction”. For the same molecule, the number of spheres (h543 GSCs) was “significant drastic reduction” and the “growth of already established lung adenocarcinomas” value [5] was “effectively impair the growth”.
